Earlier results as cited in US9763453B2, “Antimicrobial coating for inhibition of bacterial adhesion and biofilm formation” (Bacterin International, Inc., priority 2004, dated 2017).

Conditions: aqueous solutions

Ksp: ~10^−18
Compound: [Ag][I] [silver iodide]
